From patent US20230183303A1, “Therapeutic Potential of Peptides from the "Netrin-Like" Domain of the FRZB Protein” (Université de Lorraine, priority 2020, published 2023)

Columns and labels:
MMP13 = MMP13 enzymatic activity in culture supernatants of mouse articular chondrocytes; assay type: cell-based; details: PEP16 at 300 ng/mL with IL1β at 100 pg/mL; 24 h
Protocol: (§1) Mouse articular chondrocyte (MACs) were isolated from femoral heads by enzymatic digestion of whole femoral head caps. Samples were washed three times in 1% AB/phosphate buffered saline (PBS) and incubated with 2 mg/ml pronase (Roche)/DMEM-F12 at 37° C. for 1 h at slow rotation 100 rpm followed by a 3 h incubation with 1.5 mg/ml collagenase B (Roche)/DMEM-F12 at 37° C. Cells were seeded at 1×10^6 cells/[…], and cultured for 7 to 14 days in growth medium DMEM-F12, containing 1% AB (Gibco), 10% FBS (Gibco) and 5% L-glutamine (Thermoscientific). Passage 1 cells were utilized for the experiments. The culture supernatants were then harvested in order to perform MMP13 enzymatic activity assay. The evaluation of the expression of genes of interest included articular chondrocyte markers (aggrecan, type 2 collagen (col2a1)), YAP/TAZ target genes (ankrd) and pro-catabolic enzyme involved in the pathophysiology of OA (mmp3).
The MMP13 enzymatic activity was assessed using the MMP13 fluorogenic substrate (Merck Millipore). Briefly, culture supernatants harvested at the end of the different experiments were mixed with 1.5 mM of 4-aminophenylmercuric acetate, and incubated for 1 h at 37° C., in order to turn every pro-MMPs into active MMPs. […] Fluorescence was evaluated using the following parameters, excitation 325 nm and emission 393 nm, on the Varioskan Flash device (Thermo Fisher Scientific). […]

ATDC5 micromasses [1] = test: qRT-PCR relative expression of genes of interest in ATDC5 micromass culture (chondrogenesis); assay type: cell-based, mouse
Protocol: (§2) Mouse chondrogenic ATDC5 cells (cartilage-specific chondrogenic strain) were cultured until confluent in maintenance medium containing 1:1 Dulbecco's modified Eagle's medium (DMEM): Ham's F-12 mix (Gibco) supplemented with 1% antibiotic (AB, Penicillin-Streptomycin, Gibco), 5% fetal bovine serum (FBS) (Gibco) and enriched with […] human transferrin (Sigma) and 30 nM sodium selenite (Sigma). Cells were trypsinized, washed and resuspended at 2.10^7 cells/mL in a chondrogenic medium made of maintenance medium enriched by 1× of ITS premix (resulting in 10 μg/mL insulin, 10 μg/mL human transferrin and 30 nM sodium selenite) (Life technologies). One droplet of cell suspension (10 μL) was placed at the center of each well of a 24-well plate. Cells were allowed to adhere for 2 h at 37° C., followed by addition of 500 μL chondrogenic medium supplemented. […] After 14 days, induction of hypertrophic differentiation and mineralization was induced by the mineralization medium made of α-MEM medium (Gibco) containing 1% AB, 5% FBS, 5 μg/ml human transferrin, 1× of ITS premix, 50 μg/ml ascorbic acid-2-phosphate (AA) (Sigma) and 10 mM β-glycerophosphate (BGP) (Sigma). […] Micromasses were collected at time points 1, 7, 14 21 and 28 days. Each time point was processed in three technical replicates. The medium was changed every other day. […] The genes of interest were articular chondrocyte markers (aggrecan, type 2 collagen (col2a1)), YAP/TAZ target genes (ctgf, ankrd) and pro-catabolic enzymes involved in the pathophysiology of OA (mmp3, mmp13).
(§3) Total RNA was isolated using the Nucleospin RNA II kit (Macherey-Nagel) and reverse-transcribed using the MMLV reverse transcriptase (Thermo Fisher Scientific) following the manufacturers' instructions. The iTaq SYBR green qPCR master mix (BioRad) was used to assess the mRNA expression of target genes of interest. Primer sequences can be provided upon request. The following PCR conditions were used: 1 minute at 95° C., 40 cycles of 15 sec of denaturation at 95° C., followed by 1 minute of annealing-elongation at 60° C. Melting curve analysis was performed to determine the amplification of the specific product. Results were expressed using the comparative threshold method and were normalized to housekeeping gene PPIA (Peptidylprolyl Isomerase A) mRNA level for ATDC5 cells and MACs, or normalized to housekeeping gene S29 (ribosomal protein S29) mRNA level for MC3T3-E1 cells. The Via7 real-time PCR system (Thermo Fisher Scientific) was used for qRT-PCR measurements.
(§4) ATDC5 cells were cultured as micromasses and differentiated during 14 days using ITS as mentioned previously. […] RNA was isolated and qPCR were performed for different target genes, i.e. type II collagen and aggrecan (articular chondrocyte extracellular matrix), CTGF (YAP/TAZ target genes, indicators of the pathway activity) and MMP3 (cartilage degrading enzyme increased during osteoarthritis) (FIG. 15). Alcian blue staining was performed on the micromasses cultures, and biochemical quantitation was performed as previously described (FIG. 16).
as §4, with “gene, indicator” for “genes, indicators”, “17).” for “15).”, “18).” for “16).”

Wnt/β-catenin pathway [2] = details: PEP16 at 300 or 1000 ng/mL; day 7, 14, 21; during osteogenesis
Protocol: Cells were maintained in a humidified atmosphere of 5% CO2 at 37° C.

Wnt/β-catenin pathway [3] = test: Western blot of Wnt/β-catenin pathway activation in ATDC5 micromasses; assay type: cell-based, mouse; details: PEP16 at 100 and 300 ng/mL; day 1, 7, 14, 21; during chondrogenesis
Protocol: Mouse chondrogenic ATDC5 cells (cartilage-specific chondrogenic strain) were cultured until confluent in maintenance medium containing 1:1 Dulbecco's modified Eagle's medium (DMEM): Ham's F-12 mix (Gibco) supplemented with 1% antibiotic (AB, Penicillin-Streptomycin, Gibco), 5% fetal bovine serum (FBS) (Gibco) and enriched with […] human transferrin (Sigma) and 30 nM sodium selenite (Sigma). Cells were trypsinized, washed and resuspended at 2.10^7 cells/mL in a chondrogenic medium made of maintenance medium enriched by 1× of ITS premix (resulting in 10 μg/mL insulin, 10 μg/mL human transferrin and 30 nM sodium selenite) (Life technologies). One droplet of cell suspension (10 μL) was placed at the center of each well of a 24-well plate. Cells were allowed to adhere for 2 h at 37° C., followed by addition of 500 μL chondrogenic medium supplemented. […] After 14 days, induction of hypertrophic differentiation and mineralization was induced by the mineralization medium made of α-MEM medium (Gibco) containing 1% AB, 5% FBS, 5 μg/ml human transferrin, 1× of ITS premix, 50 μg/ml ascorbic acid-2-phosphate (AA) (Sigma) and 10 mM β-glycerophosphate (BGP) (Sigma). […] Micromasses were collected at time points 1, 7, 14 21 and 28 days. Each time point was processed in three technical replicates. The medium was changed every other day. […]

alkaline phosphatase = details: 300 ng/ml, 1000 ng/ml; day 1 and day 21; vs CTL
Protocol: MC3T3-E1 cells were differentiated during 21 days as mentioned previously. […] Treated cells were compared to cells without any peptide stimulation (CTL).
We also assessed the specific alkaline phosphatase activity (μmol de para-nitrophenol/min/mg of protein). To that goal, we lysed the cells using 300 μL of a buffer containing 0.2 M Tris-Base, 1.6 mM MgCl2 pH 8.1 and 1% Triton X-100. Samples were then placed into tubes and put on ice for 30 min. During this time, we alternated periods of 30 sec vortex and 5 min on ice. Then, samples were sonicated, and centrifugated for 15 min at 13 000 g, 4° C. Supernatant was collected, and total protein concentration was evaluated using bicinchoninic acid assay.
Alkaline phosphatase activity was measured by placing the harvested supernatants in para-nitrophenyl phosphate (pNPP) solution. The alkaline phosphatase will cleave this substrate and generate para-nitrophenol (pNP).
A solution of 4 mg/mL of pNPP is prepared in buffer A (0.1 M glycine pH 10.5, 0.11% (m/v) Zinc acetate and 0.011% magnesium chloride (m/v)). […]
Absorbance is read at 410 nm on a Varioskan Flash apparatus. Alkaline phosphatase activity is calculated based on the standard curve (equation A410=a×quantity(ρNP)+b) with the following formula: activity=((A(410 nm)−b)×reaction volume)/(a×sample volume×reaction time)

ATDC5 micromasses [4] = test: Glycosaminoglycan/proteoglycan quantification (Alcian blue staining) in ATDC5 micromasses; assay type: cell-based, mouse
Protocol: as §2
Micromasses were washed with PBS and fixed with 95% ice-cold ethanol for 30 min at 4° C. for staining. After washing with distilled water, micromasses were stained with Alcian Blue (0.1% Alcian Blue 8GX, (Sigma)), washed three times with distilled water to remove unbound staining and air-dried.

[5] = test system: mouse articular chondrocytes; test: qRT-PCR relative expression of genes of interest in mouse articular chondrocytes; assay type: cell-based
Protocol: as §1, §3

[6] = 300 ng/ml, differentiated 14 days with ITS, D14 vs CTL
[7] = PEP16 at 30, 100, 300 ng/mL, day 1, 7, 14, 21, 28, vs non-treated control, normalized with ppia
[8] = PEP16 at 300 ng/mL and wnt3a at 100 ng/mL, 24 and 48 h

## DRLGKKVKRWDMKLRH (PEP16) [peptide derived from the netrin-like domain of the FRZB protein]
MMP13
  IL1β-induced MMP13 enzymatic activity in culture supernatant: significantly reduced
ATDC5 micromasses [1]; [6]
  MMP3 expression: significant decrease
  YAP/TAZ target genes (CTGF) expression: significant decrease
  articular chondrocyte extracellular matrix genes (type II collagen and aggrecan) expression: significant increase
ATDC5 micromasses [1]; [7]
  relative expression level of aggrecan: significantly enhanced the induction of the expression
  relative expression level of col2a1 (type 2 collagen): significantly enhanced the induction of the expression
  relative expression level of ctgf (Hippo/YAP/TAZ target gene): efficiently reduced the expression
  relative expression level of mmp3: efficiently reduced the expression
  relative expression level of mmp13: efficiently reduced the expression
Wnt/β-catenin pathway [2]
  Wnt/β-catenin pathway activation: reduced in the activation
Wnt/β-catenin pathway [3]
  Wnt/β-catenin pathway activation (active protein form over total protein form): reduced in the activation of the Wnt/β-catenin pathway
Alkaline phosphatase
  specific alkaline phosphatase activity: tended to increase the alkaline phosphatase activity
ATDC5 micromasses [4]; 300 ng/ml, 14 days, vs control cells
  proteoglycans deposition in the extracellular matrix (Alcian blue, absorbance 650 nm): significantly increase the proteoglycans deposition
ATDC5 micromasses [4]; PEP16 at 30, 100, 300 ng/mL, Alcian blue at day 28, blue pixels and biochemical quantification
  glycosaminoglycans quantification (accumulation in the extracellular matrix): significantly increased the accumulation of glycosaminoglycans
[5]; 300 ng/mL, 12 h of stimulation
  expression of Ankrd, a target gene of the Hippo/YAP/TAZ pathway: capable of reducing the expression
[5]; 300 ng/mL, wnt3a at 100, 50, 30 ng/mL, 24 h of stimulation
  expression of MMP3 induced by Wnt3a: counteract the inductive effects of Wnt3a
[5]; [8]
  relative expression level of aggrecan (decrease induced by Wnt3a): had a tendancy to counteract
  relative expression level of col2a1 (type 2 collagen; decrease induced by Wnt3a): had a tendancy to counteract
[5]; PEP16 with Wnt3a, data not shown
  increase of NGF induced by Wnt3a: had a tendancy to counteract
